From US8865664B2, “Hydrophobically enhanced aminoglycosides” (University of Manitoba, priority 2008, dated 2014)
In brackets after ≈: the same amount, converted by molar mass.

Experiments:
[1] = system: Gram-positive organisms (ATCC and CAN-ICU strains); experiment: MIC, Gram-positive organisms (compounds ending in A); assay type: cell-based; details: in words; Table 3 organisms
Procedure: (§1) The minimum inhibitory concentrations (MIC) in μg/mL were determined using established methods (Clinical and Laboratory Standards Institute, 2006) and are shown in Table 3 (FIG. 17). Gentamicin, neomycin B and kanamycin A served as positive controls.

[2] = system: Gram-negative organisms (ATCC and CAN-ICU strains); experiment: MIC, Gram-negative organisms (compounds ending in A); assay type: cell-based; details: in words; Table 3 organisms
Procedure: as §1

[3] = system: methicillin-resistant S. aureus (MRSA) ATCC 33592; experiment: MIC, antibiotic susceptibility testing, MRSA; assay type: cell-based, Staphylococcus aureus; details: for fold enhancement against MRSA when compared to neomycin: vs neomycin
Procedure: (§2) Standard reference antibiotic susceptibility testing methods (NCCLS[CLS] (Clinical and Laboratory Standards Institute, 2006)) agar or dilutional methods was used to assess the activity of all prepared antimicrobials. Compounds were tested against Gram-positive strains including S. aureus, methicillin-resistant S. aureus (MRSA), S. epidermidis, methicillin-resistant S. epidermidis (MRSE) and S. pneumoniae as well as Gram-negative strains E. coli, gentamycin resistant E. coli and P. aeruginosa. Gentamycin and neomycin served as positive controls. MIC values defined as the lowest concentration of antimicrobial agent which inhibits the development of visible growth after 24 h at 37° C. was determined.
as §1

[4] = system: P. aeruginosa (ATCC 27853); experiment: MIC, P. aeruginosa (compounds 13-31); assay type: cell-based, Pseudomonas aeruginosa; details: in words; among neomycin-lipid conjugates
Procedure: as §2

[5] = system: Microorganisms from ATCC and CAN-ICU; experiment: MIC, all investigated bacteria (compounds ending in A); assay type: cell-based; details: in words; vs 4A
Procedure: as §1

[6] = system: E. coli (ATCC 25922); experiment: MIC, E. coli (compounds 13-31); assay type: cell-based; details: in words
Procedure: as §2

[7] = system: gentamycin resistant E. coli (ATCC 6174); experiment: MIC, gentamycin resistant E. coli (compounds 13-31); assay type: cell-based; details: in words
Procedure: as §2

[8] = system: methicillin-resistant S. epidermidis (MRSE) (ATCC 14990); experiment: MIC, antibiotic susceptibility testing, MRSE (compounds 13-31); assay type: cell-based, Staphylococcus epidermidis; details: vs kanamycin A
Procedure: as §2

[9] = system: MRSA; details: fatty acid against MRSA; cited from earlier work
[10] = system: MSSA (methicillin-susceptible S. aureus); details: fatty acid against MSSA; cited from earlier work

1,3,2′,6′,2′″,6′″-Hexaammonium-6,3′,4′,2″,5″,4′″-hexa-β-phenylcarbamoyl-5″-hexadecanoyl-5″-deoxy-neomycin-hexafluoroacetate [Compound 7A]
Gram-positive antibacterial activity [1]: poor | Gram-negative activity [2]: poor

1,3,2′,6′,2′″,6″-Hexaammonium-5″-deoxy-5″-N-(hexadecanoyl)-neomycin hexakis(trifluoroacetate) [Compound 15]
fold enhancement against MRSA when compared to neomycin ([3]; MRSA): 32 fold

1,3,2′,6′,2′″,6″-Hexaammonium-5″-deoxy-5″-N-(nonadecanoyl)-neomycin hexakis(trifluoroacetate) [Compound 16]
antimicrobial activity against P. aeruginosa [4]: optimal | fold enhancement against MRSA when compared to neomycin ([3]; MRSA): 32 fold

1,3,2′,6′-Tetraammonium-4,5,3′,4′-tetra-O-phenylcarbamoyl-neamine-tetrafluoroacetate [Compound 17A]
Gram-positive antibacterial activity [1]: reduced | Gram-negative activity [2]: higher

1,3,6′,3″-Tetraammonium-5,2′,4′,2″,3″,4″-hexa-O-phenylcarbamoyl-6″ hexadecanoyl-6″-deoxy-kanamycin-tetrafluoroacetate [Compound 14A]
Gram-positive antibacterial activity [1]: poor | Gram-negative activity [2]: poor

1,3,6′,3″-Tetraammonium-5,2″,4″,6″,2′″,3′″,4′″-hepta-β-phenylcarbamoyl-6″-deoxy-kanamycin-tetrafluoroacetate [Compound 11A]
Gram-positive antibacterial activity [1]: reduced | Gram-negative activity [2]: poor

3,6′,3″,1′″-Tetraammonium-5,2′,4′,2″,3″,4″-hexa-O-phenylcarbamoyl-6″-deoxy-amikacin-tetrafluoroacetate [Compound 20A]
Gram-positive antibacterial activity [1]: reduced | Gram-negative activity [2]: poor

4,3′,4′,2″,5″3′″,4″-Hexa-O-phenylcarbamoyl-1,3,2′,6′,2′″,6′″-hexa-N-(guanidinyl)-5″-deoxy-neomycin-hexafluoroacetate [Compound 9A]
antibacterial activity when compared to 4A [5]: slightly reduced

CCCCCC(=O)NCC1OC(OC2C(O)C(N)CC(N)C2OC2OC(CN)C(O)C(O)C2N)C(O)C1OC1OC(CN)C(O)C(O)C1N.O=C(O)C(F)(F)F.O=C(O)C(F)(F)F.O=C(O)C(F)(F)F.O=C(O)C(F)(F)F.O=C(O)C(F)(F)F.O=C(O)C(F)(F)F (stereo not drawn) [Compound 13, 1,3,2′,6′,2′″,6″-Hexaammonium-5″-deoxy-5″-N-(hexanoyl)-neomycin hexakis(trifluoroacetate)]
activity against E. coli relative to the C16- or C20-lipid conjugates [6]: stronger activity | activity against gentamycin-resistant E. coli relative to the C16- or C20-lipid conjugates [7]: stronger activity

CCCCCCCCCCCCCCCC(=O)NCC1OC(OC2C(N)CC(N)C(OC3OC(CN)C(O)C(O)C3O)C2O)C(O)C(N)C1O.O=C(O)C(F)(F)F.O=C(O)C(F)(F)F.O=C(O)C(F)(F)F.O=C(O)C(F)(F)F (stereo not drawn) [Compound 30, 1,3,6′,3″-Tetraammonium-6″-deoxy-6″-N-(hexadecanoyl)-kanamycin-tetrakis-(trifluoroacetate)]
fold enhancement in antimicrobial activity against MRSE when compared to unmodified kanamycin A [8]: 56 fold | fold enhancement in antimicrobial activity against MRSA when compared to unmodified kanamycin A ([3]; MRSA, vs kanamycin A): 35 fold

CCCCCCCCCCCC(=O)O [lauric acid]
MIC [9]: 400 µg/mL (≈ 2000 µM) | MIC [10]: 400 µg/mL (≈ 2000 µM)

neomycin [reference compound]
MIC ([3]; against MRSA, 24 h at 37° C.): ~8 µg/mL
